One assay has as its system α7nAChR-Aβ42 complex. Description: 96-well FITC-solid phase method in lymphocytes. It counts as cell-based, human. Conditions: 1 nM C0105, 30 min; AD lymphocytes or Aβ42-treated control lymphocytes. The text has this: FIG. 2 illustrates the utility of a 96-well FITC-solid phase assay method to assess, in lymphocytes from AD patients and control subjects, levels of 1) the FLNA-α7nAChR association 2) the FLNA-TLR4 association and 3) α7nAChR-Aβ42 complexes. The top two panels show α7nAChR and TLR4 levels detected using respective FITC-anti-α7nAChR or FITC-anti-TLR4 antibodies after capturing FLNA coupled to α7nAChR and TLR4, respectively, with an anti-FLNA antibody coated on the microtiter solid phase plate.
To prepare lymphocytes, 7 ml of venous blood was collected into an EDTA-containing collecting tube or S-monovette (Sarstedt). Collected blood (6 ml) was layered onto 6 ml of Histopaque®-1077 (Sigma) at 25° C., and the anticoagulated blood was centrifuged at 400×g for 30 minutes (25° C.) to yield plasma (top layer) and lymphocytes (opaque interface). The lymphocytes were washed twice by mixing with 6 ml of oxygenated K-R followed by centrifugation at 250×g for 10 minutes and resuspension. […]
After two 1-minute washes with 50 mM Tris HCl (pH 7.4), each well was incubated in 0.5 μg/well FITC-conjugated anti-mouse IgG (human and mouse absorbed) for 1 hour at 25° C. Plates were washed twice with 200 μl ice-cold Tris HCl, pH 7.4 and the residual FITC-Aβ42 signals were determined by multimode plate reader, DTX880 (Beckman). […]

In another assay the target is T1, TLR4-FLNA complexes (Mus musculus, UniProt Q8BTM8).
T1 construct: measuring α7nAChR and TLR4 contents in anti-FLNA immunoprecipitate by Western blotting; endogenous in cells; host or cells: trunk-blood lymphocytes of E129 and tau/APP695sw/PS1 transgenic mice
As to the kind of experiment: AD transgenic mouse oral treatment, lymphocyte anti-FLNA immunoprecipitation / Western blot. It counts as in vivo. Conditions: 30 mg/kg C0105 orally for 2 months; AD transgenic mice from age 4 and 8 months. On the procedure: (§1) FIG. 19, in five panels as FIG. 19A and FIG. 19B, FIG. 19C, FIG. 19D and FIG. 19E, illustrate the effects of oral administration of 30 mg/kg of Compound C0105 for a period of two months to E129 mice and AD transgenic (tau/APP695sw(-9E0/PS1) mice beginning at the ages of 4 and 8 months. Mice were sacrificed, and their brains extracted/dissected to confirm pathologies. Trunk blood was collected and lymphocyte lysate preparations were analyzed for levels of α7nAChR and FLNA as well as TLR4 and FLNA by measuring α7nAChR and TLR4 contents in anti-FLNA immunoprecipitates by Western blotting and visualization with FITC. Data are expressed as the ratios of optical intensities of α7nAChR to FLNA (FIGS. 19B and 19C) and TLR4 to FLNA (FIGS. 19D and 19E). n=5. […]
(§2) To assess the C0105's AD treatment efficacy, E129 mice and AD transgenic (tau/APP695sw(-9E)/PS1) mice at age of 4-months (minimal plaque pathologies) and 8-months (established plaque pathologies) were treated orally with 30 mg/kg of C0105 for 2 months. […] The protein bands were detected using a chemiluminescent method, visualized by exposure to x-ray film and quantified by densitometric scan.
(§3) The data were expressed as the ratios of optical intensities of α7nAChR to FLNA and TLR4 to FLNA. […]
On the technique in general: Immunoblotting shows a protein as a band on a membrane.

For the next assay, the target named is T2, α7nAChR-FLNA complexes (Mus musculus, UniProt Q8BTM8).
T2 construct: measuring α7nAChR and TLR4 contents in anti-FLNA immunoprecipitate by Western blotting; endogenous in cells; host or cells: trunk-blood lymphocytes of E129 and tau/APP695sw/PS1 transgenic mice
The assay is described as above. It counts as in vivo. The following applies: 30 mg/kg C0105 orally for 2 months; AD transgenic mice from age 4 and 8 months. As for the experimental part: as §1, §2, §3

We go through one compound from patent US10222368B2 (priority 2012, dated 2019).

T1 sequence (Q8BTM8 2-2647 limits assumed, one chain of several): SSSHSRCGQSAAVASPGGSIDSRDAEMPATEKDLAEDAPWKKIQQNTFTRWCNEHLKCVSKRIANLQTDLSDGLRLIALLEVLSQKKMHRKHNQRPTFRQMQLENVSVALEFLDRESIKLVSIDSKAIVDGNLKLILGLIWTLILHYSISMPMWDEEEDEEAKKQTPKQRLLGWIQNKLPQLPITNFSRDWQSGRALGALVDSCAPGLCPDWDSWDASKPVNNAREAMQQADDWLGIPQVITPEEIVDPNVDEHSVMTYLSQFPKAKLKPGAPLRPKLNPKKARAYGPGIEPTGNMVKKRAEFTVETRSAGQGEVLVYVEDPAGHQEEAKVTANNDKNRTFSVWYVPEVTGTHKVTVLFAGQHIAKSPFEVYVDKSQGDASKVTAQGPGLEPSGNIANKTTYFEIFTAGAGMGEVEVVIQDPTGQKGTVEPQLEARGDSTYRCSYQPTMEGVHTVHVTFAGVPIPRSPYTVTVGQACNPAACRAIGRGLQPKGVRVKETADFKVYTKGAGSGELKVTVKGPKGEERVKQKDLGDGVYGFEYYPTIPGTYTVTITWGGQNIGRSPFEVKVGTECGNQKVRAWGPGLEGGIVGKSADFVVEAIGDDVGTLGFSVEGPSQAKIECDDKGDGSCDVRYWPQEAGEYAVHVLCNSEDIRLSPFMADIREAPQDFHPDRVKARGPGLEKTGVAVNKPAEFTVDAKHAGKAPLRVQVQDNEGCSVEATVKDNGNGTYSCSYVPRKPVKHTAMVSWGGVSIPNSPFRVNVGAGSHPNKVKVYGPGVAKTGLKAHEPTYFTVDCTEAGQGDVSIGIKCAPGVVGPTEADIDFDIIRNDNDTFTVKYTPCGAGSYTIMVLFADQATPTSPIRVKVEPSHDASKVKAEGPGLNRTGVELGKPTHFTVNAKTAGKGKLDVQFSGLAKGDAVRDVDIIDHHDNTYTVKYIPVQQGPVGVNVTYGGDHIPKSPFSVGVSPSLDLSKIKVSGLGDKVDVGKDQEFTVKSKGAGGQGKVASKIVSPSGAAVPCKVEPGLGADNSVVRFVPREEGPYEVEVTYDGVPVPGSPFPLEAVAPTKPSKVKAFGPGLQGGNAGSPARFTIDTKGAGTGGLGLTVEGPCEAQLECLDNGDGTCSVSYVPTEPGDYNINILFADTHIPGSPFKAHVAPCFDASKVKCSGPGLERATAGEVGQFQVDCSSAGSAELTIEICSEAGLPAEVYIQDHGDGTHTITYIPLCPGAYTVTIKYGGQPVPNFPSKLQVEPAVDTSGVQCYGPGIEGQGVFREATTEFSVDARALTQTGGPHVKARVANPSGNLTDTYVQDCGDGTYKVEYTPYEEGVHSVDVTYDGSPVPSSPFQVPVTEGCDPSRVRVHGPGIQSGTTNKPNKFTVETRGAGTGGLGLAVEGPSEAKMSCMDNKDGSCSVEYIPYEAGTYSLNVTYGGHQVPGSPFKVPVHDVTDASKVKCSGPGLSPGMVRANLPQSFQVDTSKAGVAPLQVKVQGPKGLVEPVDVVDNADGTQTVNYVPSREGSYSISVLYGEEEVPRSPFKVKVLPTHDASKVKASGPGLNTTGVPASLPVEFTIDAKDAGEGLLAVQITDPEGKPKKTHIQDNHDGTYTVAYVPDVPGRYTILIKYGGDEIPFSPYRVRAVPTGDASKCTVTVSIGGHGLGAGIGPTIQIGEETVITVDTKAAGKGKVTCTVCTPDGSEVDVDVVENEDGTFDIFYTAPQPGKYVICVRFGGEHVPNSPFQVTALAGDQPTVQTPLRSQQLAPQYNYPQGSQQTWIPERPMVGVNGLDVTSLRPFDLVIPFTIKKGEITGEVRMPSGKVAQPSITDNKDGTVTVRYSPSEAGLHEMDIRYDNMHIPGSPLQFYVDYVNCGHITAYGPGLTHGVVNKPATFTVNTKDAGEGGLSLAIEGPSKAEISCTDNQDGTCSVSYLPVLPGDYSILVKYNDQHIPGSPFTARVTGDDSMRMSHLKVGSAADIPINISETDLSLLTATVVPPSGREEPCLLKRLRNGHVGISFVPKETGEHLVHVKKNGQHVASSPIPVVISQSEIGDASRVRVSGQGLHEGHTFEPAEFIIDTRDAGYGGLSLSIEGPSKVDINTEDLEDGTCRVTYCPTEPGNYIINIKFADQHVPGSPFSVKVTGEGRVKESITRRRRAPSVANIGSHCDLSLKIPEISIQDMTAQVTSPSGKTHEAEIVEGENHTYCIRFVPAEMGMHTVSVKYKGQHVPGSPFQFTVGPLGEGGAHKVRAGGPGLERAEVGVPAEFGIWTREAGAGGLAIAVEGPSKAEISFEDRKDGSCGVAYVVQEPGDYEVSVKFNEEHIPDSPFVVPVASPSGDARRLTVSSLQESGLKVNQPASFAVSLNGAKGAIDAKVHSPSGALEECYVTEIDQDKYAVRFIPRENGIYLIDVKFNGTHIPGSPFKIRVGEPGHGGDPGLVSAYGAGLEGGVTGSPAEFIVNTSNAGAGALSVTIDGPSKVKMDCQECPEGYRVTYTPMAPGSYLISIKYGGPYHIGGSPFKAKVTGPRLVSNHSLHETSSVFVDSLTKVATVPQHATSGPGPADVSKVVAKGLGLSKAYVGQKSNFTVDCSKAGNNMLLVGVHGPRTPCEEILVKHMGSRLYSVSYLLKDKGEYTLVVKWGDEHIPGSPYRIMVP
T2 sequence (Q8BTM8 2-2647 limits assumed, one chain of several): as above

Turning to `CN1CCC2(CC1)NCC(=O)N2Cc1ccccc1` [Compound C0105], the “Effect on α7nAChR-Aβ42 complexes (in words)” value in the assay with α7nAChR-Aβ42 complex is “reduce all three associations”. In addition, the “Effect on elevated TLR4-FLNA complexes in lymphocytes (in words)” value on TLR4-FLNA complexes is recorded as “robustly normalized”. For the same compound, the “Effect on elevated α7nAChR-FLNA complexes in lymphocytes (in words)” value at α7nAChR-FLNA complexes is “robustly normalized”.
